Results from article PMC12410356 (International Journal for Parasitology: Drugs and Drug …, 2025).

Experiments:
[1] = system: E. multilocularis metacestode vesicles; test: Metacestode vesicle viability assay (ATP, CellTiter-Glo); format: cell-based, Echinococcus multilocularis
Protocol: Viability was assessed after 12 days using the same metacestode vesicles as for the PGI release assay. Triton X-100 was added to each well to a final concentration of 0.1 %. Subsequently the metacestode vesicles were broken mechanically and 50 μL of the supernatant was mixed with 50 μL of CellTiter-Glo® buffer (Promega, Dübendorf, Switzerland). Measurements were performed on a HIDEX Sense microplate reader.

[2] = system: E. multilocularis metacestode vesicles; test: Phosphoglucose isomerase (PGI) release assay (damage-marker release) on metacestode vesicles; format: cell-based, Echinococcus multilocularis; conditions: 10 μM; for PGI d5 (relative PGI release): 5 days; for PGI d12 (relative PGI release): 12 days
[3] = confirmation screen, 10 μM, triplicates, mean, 12 days
[4] = overview screen, 10 μM, singlets, 12 days, relative to DMSO control
[5] = confirmation screen, triplicates, mean
[6] = overview screen, singlets, relative to 0.1 % Triton X-100, DMSO subtracted

CCc1cc(Cc2cnc(N)nc2N)cc2c1N(C)CCC2C (centres unmarked) [MMV1582490]
Viability d12 (relative viability) [1, 3]: 117.48%
Viability d12 (relative viability) [1, 4]: 27.4864%
PGI d5 (relative PGI release) [2, 5]: 0.0536%
PGI d12 (relative PGI release) [2, 5]: -0.39%
PGI d5 (relative PGI release) [2, 6]: 9.437%
PGI d12 (relative PGI release) [2, 6]: 80.495%

O=C(CCCC(F)(F)F)N1CCC(c2nc(-c3nccs3)no2)CC1 [MMV1582491]
Viability d12 (relative viability) [1, 3]: 57.90%
Viability d12 (relative viability) [1, 4]: 18.4528%
PGI d5 (relative PGI release) [2, 5]: -0.08%
PGI d12 (relative PGI release) [2, 5]: -0.04%
PGI d5 (relative PGI release) [2, 6]: 0.6914%
PGI d12 (relative PGI release) [2, 6]: 59.8611%

Cc1nc(-c2ccc(C3N(C)c4ccc(F)cc4C(=O)N3c3ccccc3)s2)cs1 (centres unmarked) [MMV1582492]
Viability d12 (relative viability) [1, 4]: 101.198%
PGI d5 (relative PGI release) [2, 6]: -1.6173%
PGI d12 (relative PGI release) [2, 6]: -12.6909%

C[C@@H](NC(=O)c1ccccc1-c1ccccc1)B(O)O [MMV1582493]
Viability d12 (relative viability) [1, 4]: 135.265%
PGI d5 (relative PGI release) [2, 6]: -2.006%
PGI d12 (relative PGI release) [2, 6]: 35.0936%

C[C@@H](O)[C@H](N)C(=O)NS(=O)(=O)c1cccc(-c2ccc3[nH]ncc3c2)c1.Cl.Cl [MMV1582494]
Viability d12 (relative viability) [1, 4]: 90.2603%
PGI d5 (relative PGI release) [2, 6]: -2.197%
PGI d12 (relative PGI release) [2, 6]: -25.2892%

C(=C\c1nc2ccccc2[nH]1)/c1ccc2c(c1)OCO2 [MMV1582495]
Viability d12 (relative viability) [1, 4]: 98.8605%
PGI d5 (relative PGI release) [2, 6]: -1.5423%
PGI d12 (relative PGI release) [2, 6]: -10.1943%

N#Cc1c(F)c(Cl)c(NCc2ccccc2)c(C#N)c1F [MMV1582496, 4-(benzylamino)-5-chloro-2,6-difluorobenzene-1,3-dicarbonitrile]
viability at 10 µM ([1]; Echinococcus multilocularis, 288 h, overview screen, 10 μM, singlets, 12 days, relative to DMSO control, read-out: Viability d12 (relative viability)): 121%
effect on metacestode vesicle viability (in words) ([1]; overview screen, 10 μM, twelve days, cut-off viability ≤30 %): did not reduce the metacestode vesicle viability
PGI d5 (relative PGI release) [2, 6]: 23.5135%
PGI d12 (relative PGI release) [2, 6]: 27.7197%
activity in the PGI release assay (in words) ([2]; overview screen, twelve days, cut-off PGI release ≥20 %): active in the PGI assay after twelve days

CC(C)c1ccc(COc2cccc(-c3cc([S+](C)[O-])c(C#N)c(=O)[nH]3)c2)cc1 (centres unmarked) [MMV1582497]
Viability d12 (relative viability) [1, 4]: 210.079%
PGI d5 (relative PGI release) [2, 6]: 3.781%
PGI d12 (relative PGI release) [2, 6]: -9.364%

Cc1cc(Nc2ccc(F)cc2)nc(SCc2nc3ccccc3[nH]2)n1 [MMV1582498]
Viability d12 (relative viability) [1, 4]: 46.2574%
PGI d5 (relative PGI release) [2, 6]: 0.3642%
PGI d12 (relative PGI release) [2, 6]: 1.096%

CCC(CC)[C@H](NC(C)=O)[C@@H]1[C@H](O)[C@@H](C(=O)O)C[C@H]1NC(=N)N [MMV1593511]
Viability d12 (relative viability) [1, 4]: 73.923%
PGI d5 (relative PGI release) [2, 6]: 0.2364%
PGI d12 (relative PGI release) [2, 6]: -10.4107%

CCCCCCCCCN1C[C@@H](O)[C@H](O)[C@@H](O)[C@@H]1CO [MMV1593513]
Viability d12 (relative viability) [1, 4]: 80.9399%
PGI d5 (relative PGI release) [2, 6]: -0.861%
PGI d12 (relative PGI release) [2, 6]: -3.193%

CNC(=O)C1O[C@@H](n2cnc3c(NCc4cccc(I)c4)nc(Cl)nc32)[C@H](O)[C@@H]1O (some centres unmarked) [MMV1593514]
Viability d12 (relative viability) ([1]; 10 µM): 79.1378%
PGI d5 (relative PGI release) [2, 6]: -0.4087%
PGI d12 (relative PGI release) [2, 6]: 0.1534%

CCOC(=O)N[C@@H]1CC[C@@H]2[C@@H](C1)C[C@H]1C(=O)O[C@H](C)[C@H]1[C@H]2/C=C/c1ccc(-c2cccc(F)c2)cn1 [MMV1593515]
Viability d12 (relative viability) [1, 4]: 74.5757%
PGI d5 (relative PGI release) [2, 6]: 1.1006%
PGI d12 (relative PGI release) [2, 6]: -17.1599%

O=C(O)[C@H]1C2CCC(CC2)[C@@H]1Nc1nc(-c2c[nH]c3ncc(F)cc23)ncc1F [MMV1593516]
Viability d12 (relative viability) [1, 4]: 121.454%
PGI d5 (relative PGI release) [2, 6]: 2.198%
PGI d12 (relative PGI release) [2, 6]: -18.5586%

O=C(/C=C/n1cnc(-c2cc(C(F)(F)F)cc(C(F)(F)F)c2)n1)NNc1cnccn1 [MMV1593517]
Viability d12 (relative viability) ([1]; 10 µM): 95.9515%
PGI d5 (relative PGI release) [2, 6]: 1.037%
PGI d12 (relative PGI release) [2, 6]: -18.0019%

C[C@@]1(O)[C@H](O)[C@@H](CO)O[C@H]1n1ccc2c(N)ncnc21 [MMV1593519]
Viability d12 (relative viability) [1, 4]: 152.992%
PGI d5 (relative PGI release) [2, 6]: 0.01923%
PGI d12 (relative PGI release) [2, 6]: 0.1259%

[N-]=[N+]=N[C@H]1C[C@H](n2ccc(=O)[nH]c2=O)O[C@@H]1CO [MMV1593520]
Viability d12 (relative viability) [1, 4]: 90.373%
PGI d5 (relative PGI release) [2, 6]: 0.5917%
PGI d12 (relative PGI release) [2, 6]: -8.089%

CC(C)Nc1nc2cc(Cl)c(Cl)cc2n1[C@H]1O[C@@H](CO)[C@H](O)[C@@H]1O [MMV1593521]
Viability d12 (relative viability) [1, 4]: 80.7959%
PGI d5 (relative PGI release) [2, 6]: 1.092%
PGI d12 (relative PGI release) [2, 6]: -0.5297%

O=C(Nc1ccc(-c2ccccc2)cc1)C1=C(O)C(Cc2ccccc2)OC1=O (centres unmarked) [MMV1593531]
Viability d12 (relative viability) [1, 3]: 49.52%
Viability d12 (relative viability) [1, 4]: 16.5533%
PGI d5 (relative PGI release) [2, 5]: 0.17%
PGI d12 (relative PGI release) [2, 5]: 1.55%
PGI d5 (relative PGI release) [2, 6]: 4.793%
PGI d12 (relative PGI release) [2, 6]: 88.1717%
